Laboratory results published in patent US7767854B2, “N-substituted phenylacetamide derivative and pharmaceutical composition containing the same” (Dainippon Sumitomo Pharma Co., Ltd., priority 2005, dated 2010).

Columns and labels:
male Std: Wistar rats = experiment: Pain test by plantar thermal stimuli (plantar test); format: in vivo; details: Rattus norvegicus, 4 h, 50 μl of 0.03% (W/V) solution i.pl. into right hind-paw; 4 hours after administration; cut-off 25 seconds; read-out: % MPE (percent maximum possible effect, withdrawal latency)
Experimental: Experiment 1: Pain Test by Plantar Thermal Stimuli (Plantar Test)
In the present experiment, the analgesic effect of the compounds of the invention was evaluated by the measurements of withdrawal latency to noxious thermal stimuli, according to the methods of Hargreaves, et al., [Pain, 32, 77-88 (1988)] and Field, et al., [J. Pharmacol. Exp. Ther., 282, 1242-1246 (1997)].
In detail, the experiment was carried out using male Std: Wistar rats (4 rats/group; body weight, 170-220 g) and a plantar test device (Model 7370, Ugo Basile) with infrared beam as a heat source. The rat was put into an experimental cage that is an acrylic box whose bottom is made of glass and was habituated therein. Then, the infrared beam was radiated to the plantar surface of right hind-paw thereof through the floor glass, and the withdrawal latency was measured every 5 minutes, 3 times. The intension of the infrared beam was adjusted so that the pre-drug administration latency was about 10 seconds. The cut-off time was set at 25 seconds in order to prevent a paw burn. The average of the latencies was calculated, and then it was defined as the value of the pre-drug administration latency of the test compound.
Next day, 50 μl of each solution of the test compounds [the compounds of the invention, the compounds of the comparative Examples and capsaicin (Sigma, U.S.A.)] or 50 μl of vehicle solvent (reference) was given to a right hind-paw of the rat by intraplantar injection (i. pl.) using a micro-syringe. The test compound was dissolved in a saline solution containing 10% Tween 80 (Sigma, U.S.A) and 10% ethanol to give a 0.03% (W/V) solution. The saline solution containing 10% Tween 80 and 10% ethanol was used as reference. Four hours after i.pl. administration of each the test compound or the reference to the rats, the experiment mentioned above was carried out, and then the post-drug administration latency was measured. The analgesic effects thereof were calculated with the following formula, which was known as a percent maximum possible effect (% MPE). % MPE=[(the value of post-drug latency−the value of pre-drug latency)/(25*−the value of pre-drug latency)]×100 *: cut-off time

female CBA/JN mice = experiment: Skin sensitization test (Local Lymph Node Assay with BrdU); format: in vivo, mouse; details: 1 and 3% solutions in DMF on both auricles, 3 days
Experimental: Experiment 4: Skin Sensitization Test (Local Lymph Node Assay)
The purpose of the present experiment is to investigate if each administered compound of the invention can induce allergic contact dermatitis. In detail, the skin sensitization effect of the compounds of the invention was examined using BrdU (bromodeoxyuridine) by LLNA (Local Lymph Node Assay).
In more detail, the test was carried out according to the method by Suda, A. et al. (Local lymph node assay with non-radioisotope alternative endpoints. J. Toxicol. Sci., 27(3):205-218, 2002). Namely, the compounds of the invention were dissolved in DMF (N,N-dimethylformamide) to prepare 1 and 3% solutions, which were applied to both auricles of female CBA/JN mice aged 9 weeks for consecutive 3 days (1st day to 3rd day)(25 μl/one-side ear, once a day)
As positive control drugs, DNCB (dinitrochlorobenzene, a potently sensitizing drug) and HCA (α-hexylcinnamaldehyde, a weakly sensitizing drug) were used. After the final application was finished (on 3rd day), ALZET Osmotic Pump containing 100 μl of 200 mg/mL BrdU (releasing rate: 0.5 μl/hour) was implanted into the ventral skin under pentobarbital anesthesia, and BrdU was exposed sustainedly. On 9th day from starting day to apply the compounds of the invention, the animals were euthanized by cervical dislocation, and parotid lymph nodes of both their ears were taken out. The nodes were weighed and homogenized in PBS to prepare a single cell suspension which was measured by a blood test device: ADVIA (Bayer) to count the number of the cells. Next, the cells were immunofluorescently stained with FITC-labeled anti-BrdU antibody using a BrdU Flow Kit (BD Biosciences), which were measured and analyzed using a flow cytometer: FACS Calibur (Becton Dickinson) to give BrdU-positive cell percentage. And then, the BrdU-positive cell percentage was multiplied by the number of the node cells to give the number of the BrdU-positive cells. Additionally, on each parameter, the average value for the test compound group was divided by the average value for the reference (solvent) group to give a stimulation Index (SI). We judged that the compound had skin sensitization activity when the SI of BrdU-positive cell number was 2 or more, in principle.

| SMILES | change in vivo at 300 µg/mL (male Std: Wistar rats) | skin sensitization (SI of BrdU-positive cell number) (female CBA/JN mice) |
| --- | --- | --- |
| CCCCC[C@H]1CC[C@@H](NC(=O)Cc2ccc(O)c(OC)c2)CC1 [Example 8] | 88.4% | weak skin sensitization |
| CCCC=C1CCC(NC(=O)Cc2ccc(O)c(OC)c2)CC1 (stereo not drawn) [Example 10, N-(4-butylidenecyclohexyl)-2-(4-hydroxy-3-methoxyphenyl)acetamide] | 89.4% | weak skin sensitization |
| COc1cc(CC(=O)N[C@H]2CC[C@H](CCC(C)C)CC2)ccc1O [Example 26, 2-(4-hydroxy-3-methoxyphenyl)-N-[trans-4-(3-methylbutyl)cyclohexyl]acetamide] | 96.3% | weak skin sensitization |
| CCCCCO[C@H]1CC[C@H](NC(=O)Cc2ccc(O)c(OC)c2)CC1 [Example 36] | 50.5% | weak skin sensitization |
| COc1cc(CC(=O)N[C@H]2CC[C@H](CC=C(C)C)CC2)ccc1O [Example 42, 2-(4-hydroxy-3-methoxyphenyl)-N-[trans-4-(3-methyl-2-butenyl)cyclohexyl]acetamide] | 85% | weak skin sensitization |
| C=C(C)/C=C/[C@H]1CC[C@H](NC(=O)Cc2ccc(O)c(OC)c2)CC1 [Example 72, 2-(4-hydroxy-3-methoxyphenyl)-N-{trans-4-[(E)-3-methyl-1,3-butadienyl]cyclohexyl}acetamide] | 75.4% |  |
| C/C=C\CC[C@H]1CC[C@H](NC(=O)Cc2ccc(O)c(OC)c2)CC1 [Example 73, 2-(4-hydroxy-3-methoxyphenyl)-N-{trans-4-[(Z)-3-pentenyl]cyclohexyl}acetamide] | 74.1% |  |
| C=CCC[C@H]1CC[C@H](NC(=O)Cc2ccc(O)c(OC)c2)CC1 [Example 74, N-[trans-4-(3-butenyl)cyclohexyl]-2-(4-hydroxy-3-methoxyphenyl)acetamide] | 57.1% |  |
| C/C=C/CC[C@H]1CC[C@H](NC(=O)Cc2ccc(O)c(OC)c2)CC1 [Example 75, 2-(4-hydroxy-3-methoxyphenyl)-N-{trans-4-[(E)-3-pentenyl]cyclohexyl}acetamide] | 74.4% |  |
| COc1cc(CC(=O)NC2CCC(=C3CCCCC3)CC2)ccc1O (stereo not drawn) [Example 76, N-(4-cyclohexylidenecyclohexyl)-2-(4-hydroxy-3-methoxyphenyl)acetamide] | 71% |  |
| CCC(CC)=C1CCC(NC(=O)Cc2ccc(O)c(OC)c2)CC1 (stereo not drawn) [Example 77] | 78.6% |  |
| CCCC(CCC)=C1CCC(NC(=O)Cc2ccc(O)c(OC)c2)CC1 (stereo not drawn) [Example 78] | 82.8% |  |
| COc1cc(CC(=O)NC2CCC(=C3CCC3)CC2)ccc1O (stereo not drawn) [Example 79] | 33.6% |  |
| COc1cc(CC(=O)NC2CCC(=C3CCCC3)CC2)ccc1O (stereo not drawn) [Example 80] | 37% |  |
| COc1cc(CC(=O)NC2CCC(=C3CCCCCC3)CC2)ccc1O (stereo not drawn) [Example 81] | 94.4% |  |
| COc1cc(CC(=O)NC2CCC(=C(C)C)CC2)ccc1O (stereo not drawn) [Example 82, 2-(4-hydroxy-3-methoxyphenyl)-N-(4-isopropylidenecyclohexyl)acetamide] | 68.4% |  |
| COc1cc(CC(=O)N[C@H]2CC[C@H](C3CCCCC3)CC2)ccc1O [Example 83, N-(trans-4-cyclohexylcyclohexyl)-2-(4-hydroxy-3-methoxyphenyl)acetamide] | 77.4% |  |
| CCC(CC)[C@H]1CC[C@H](NC(=O)Cc2ccc(O)c(OC)c2)CC1 [Example 84] | 76.9% |  |
| CCCC(CCC)[C@H]1CC[C@H](NC(=O)Cc2ccc(O)c(OC)c2)CC1 [Example 85] | 49.3% |  |

| SMILES | change in vivo at 300 µg/mL (male Std: Wistar rats) | skin sensitization (SI of BrdU-positive cell number) (female CBA/JN mice) |
| --- | --- | --- |
| COc1cc(CC(=O)N[C@H]2CC[C@H](C3CCC3)CC2)ccc1O [Example 86] | 68.6% |  |
| COc1cc(CC(=O)N[C@H]2CC[C@H](C3CCCCCC3)CC2)ccc1O [Example 87] | 80.1% |  |
| CCC(CC)C1=CCC(NC(=O)Cc2ccc(O)c(OC)c2)CC1 (stereo not drawn) [Example 88, 2-(4-hydroxy-3-methoxyphenyl)-N-[4-(3-pentyl)-3-cyclohexenyl]acetamide] | 95.5% |  |
| CCCC(CCC)C1=CCC(NC(=O)Cc2ccc(O)c(OC)c2)CC1 (stereo not drawn) [Example 89, N-[4-(4-heptyl)-3-cyclohexenyl]-2-(4-hydroxy-3-methoxyphenyl)acetamide] | 100% |  |
| COc1cc(CC(=O)N[C@H]2CC[C@H](C=C3CCC3)CC2)ccc1O [Example 91, N-[trans-4-(cyclobutylidenemethyl)-cyclohexyl]-2-(4-hydroxy-3-methoxyphenyl)acetamide] | 74.2% |  |
| COc1cc(CC(=O)N[C@H]2CC[C@H](CC3CCC3)CC2)ccc1O [Example 93, N-[trans-4-(cyclobutylmethyl)cyclohexyl]-2-(4-hydroxy-3-methoxyphenyl)acetamide] | 69.7% |  |
| C/C=C\C[C@H]1CC[C@H](NC(=O)Cc2ccc(O)c(OC)c2)CC1 [Example 94, N-{trans-4-[(Z)-2-butenyl]cyclohexyl}-2-(4-hydroxy-3-methoxyphenyl)acetamide] | 69.1% |  |
| COc1cc(CC(=O)N[C@H]2CC[C@@H](C=C(C)C)CC2)ccc1O [Example 95, 2-(4-hydroxy-3-methoxyphenyl)-N-[cis-4-(2-methyl-1-propenyl)cyclohexyl]acetamide] | 88.8% |  |
| COc1cc(CC(=O)N[C@H]2CC[C@@H](CC(C)C)CC2)ccc1O [Example 96, 2-(4-hydroxy-3-methoxyphenyl)-N-[cis-4-(2-methylpropyl)cyclohexyl]acetamide] | 80.4% |  |
| C/C=C(\CC)[C@H]1CC[C@@H](NC(=O)Cc2ccc(O)c(OC)c2)CC1 [Example 97, N-{cis-4-[(E)-1-ethyl-1-propenyl]-cyclohexyl}-2-(4-hydroxy-3-methoxyphenyl)acetamide] | 63.8% |  |
| CCC(CC)[C@H]1CC[C@@H](NC(=O)Cc2ccc(O)c(OC)c2)CC1 [Example 98, 2-(4-hydroxy-3-methoxyphenyl)-N-[cis-4-(3-pentyl)cyclohexyl]acetamide] | 74.6% |  |
| COc1cc(CC(=O)N[C@H]2CC[C@H](CCCCF)CC2)ccc1O [Example 99, N-[trans-4-(4-fluorobutyl)cyclohexyl]-2-(4-hydroxy-3-methoxyphenyl)acetamide] | 55.8% |  |
| COc1cc(CC(=O)N[C@H]2CC[C@H](CC3CC3)CC2)ccc1O [Example 100, N-(trans-4-cyclopropylmethylcyclohexyl)-2-(4-hydroxy-3-methoxyphenyl)acetamide] | 44.5% |  |
| COc1cc(CC(=O)N[C@H]2CC[C@H](/C=C/CC(F)(F)F)CC2)ccc1O [Example 102] | 56.6% |  |
| COc1cc(CC(=O)N[C@H]2CC[C@H](/C=C/CCF)CC2)ccc1O [Example 103] | 36.7% |  |
| COc1cc(CC(=O)NC2CCC3(CCCCC3)CC2)ccc1O [Example 105, 2-(4-hydroxy-3-methoxyphenyl)-N-(spiro[5.5]undec-3-yl)acetamide] | 63.4% |  |
| CCC1(CC)CCC(NC(=O)Cc2ccc(O)c(OC)c2)CC1 [Example 106] | 51.5% |  |
| CCCCC1(CC)CCC(NC(=O)Cc2ccc(O)c(OC)c2)CC1 (stereo not drawn) [Example 107] | 85.2% |  |
